# Measured values from patent US20070049564A1 (Wyeth, priority 2005, published 2007).
# Read-outs that look alike come from different tables or passages of the source.
# Tests used:
# E. coli GC 2231 = experiment: MIC, broth microdilution; details: Escherichia coli
# E. coli GC 2235 = experiment: MIC, broth microdilution; details: Escherichia coli
# E. coli GC 2233 = experiment: MIC, broth microdilution; details: Escherichia coli
# E. coli GC 2270 = experiment: MIC, broth microdilution; details: Escherichia coli
# E. coli GC 4560 = experiment: MIC, broth microdilution; details: Escherichia coli
# E. coli GC 6465 = experiment: MIC, broth microdilution; details: Escherichia coli
# E. coli GC 1073 = experiment: MIC, broth microdilution; details: Escherichia coli
# S. typhimurium GC 2172 = experiment: MIC, broth microdilution; details: Salmonella enterica, TYPHIMURIUM
# S. aureus GC 6466 = experiment: MIC, broth microdilution; details: Staphylococcus aureus
# S. aureus GC 6467 = experiment: MIC, broth microdilution; details: Staphylococcus aureus
# S. aureus GC 1079 = experiment: MIC, broth microdilution; details: Staphylococcus aureus
# S. aureus GC 4536 = experiment: MIC, broth microdilution; details: Staphylococcus aureus
# S. aureus GC 2216 = experiment: MIC, broth microdilution; details: Staphylococcus aureus
# S. aureus GC 6469 = experiment: MIC, broth microdilution; details: Staphylococcus aureus
# E. faecalis GC 2242 = experiment: MIC, broth microdilution; details: Enterococcus faecalis
# E. faecium GC 4556 = experiment: MIC, broth microdilution; details: Enterococcus faecium
# E. faecium GC 2243 = experiment: MIC, broth microdilution; details: Enterococcus faecium
# c. albicans GC 3066 = experiment: MIC, broth microdilution
# E. coli = experiment: Range of MIC for E. coli strains; details: Escherichia coli
# Staph. = experiment: Range of MIC for Staph. strains, including MRSA; details: Staphylococcus aureus
compound,measurement,setting,value
Cc1cc(C)cc(C(=O)OCOC(=O)N(CC(=O)Nc2cc(N(C)C)c3c(c2O)C(=O)C2=C(O)[C@]4(O)C(=O)C(C(N)=O)=C(O)[C@@H](N(C)C)[C@@H]4C[C@@H]2C3)C(C)(C)C)c1 [Example 51],MIC,"E. coli GC 2231; GC2231, read-out: MINIMAL INHIBITORY CONCENTRATION MIC, Human Serum",32 µg/mL
same,MIC,"E. coli GC 2231; GC2231, read-out: MINIMAL INHIBITORY CONCENTRATION MIC, Mouse Serum",2 µg/mL
same,MIC,"E. coli GC 2231; GC2231, read-out: MINIMAL INHIBITORY CONCENTRATION MIC, Water",> 64 µg/mL
same,MIC,"E. coli GC 2235; GC2235, read-out: MINIMAL INHIBITORY CONCENTRATION MIC, Human Serum",32 µg/mL
same,MIC,"E. coli GC 2235; GC2235, read-out: MINIMAL INHIBITORY CONCENTRATION MIC, Mouse Serum",1 µg/mL
same,MIC,"E. coli GC 2235; GC2235, read-out: MINIMAL INHIBITORY CONCENTRATION MIC, Water",> 64 µg/mL
same,MIC,"E. coli GC 2233; GC2233, read-out: MINIMAL INHIBITORY CONCENTRATION MIC, Human Serum",32 µg/mL
same,MIC,"E. coli GC 2233; GC2233, read-out: MINIMAL INHIBITORY CONCENTRATION MIC, Mouse Serum",2 µg/mL
same,MIC,"E. coli GC 2233; GC2233, read-out: MINIMAL INHIBITORY CONCENTRATION MIC, Water",> 64 µg/mL
same,MIC,"E. coli GC 2270; GC2270, read-out: MINIMAL INHIBITORY CONCENTRATION MIC, Human Serum",32 µg/mL
same,MIC,"E. coli GC 2270; GC2270, read-out: MINIMAL INHIBITORY CONCENTRATION MIC, Mouse Serum",1 µg/mL
same,MIC,"E. coli GC 2270; GC2270, read-out: MINIMAL INHIBITORY CONCENTRATION MIC, Water",> 64 µg/mL
same,MIC,"E. coli GC 4560; GC4560, read-out: MINIMAL INHIBITORY CONCENTRATION MIC, Human Serum",8 µg/mL
same,MIC,"E. coli GC 4560; GC4560, read-out: MINIMAL INHIBITORY CONCENTRATION MIC, Mouse Serum",1 µg/mL
same,MIC,"E. coli GC 4560; GC4560, read-out: MINIMAL INHIBITORY CONCENTRATION MIC, Water",32 µg/mL
same,MIC,"E. coli GC 6465; GC6465, read-out: MINIMAL INHIBITORY CONCENTRATION MIC, Human Serum",32 µg/mL
same,MIC,"E. coli GC 6465; GC6465, read-out: MINIMAL INHIBITORY CONCENTRATION MIC, Mouse Serum",4 µg/mL
same,MIC,"E. coli GC 6465; GC6465, read-out: MINIMAL INHIBITORY CONCENTRATION MIC, Water",> 64 µg/mL
same,MIC,"E. coli GC 1073; GC1073, read-out: MINIMAL INHIBITORY CONCENTRATION MIC, Human Serum",64 µg/mL
same,MIC,"E. coli GC 1073; GC1073, read-out: MINIMAL INHIBITORY CONCENTRATION MIC, Mouse Serum",2 µg/mL
same,MIC,"E. coli GC 1073; GC1073, read-out: MINIMAL INHIBITORY CONCENTRATION MIC, Water",> 64 µg/mL
same,MIC,"S. typhimurium GC 2172; read-out: MINIMAL INHIBITORY CONCENTRATION MIC, Human Serum",64 µg/mL
same,MIC,"S. typhimurium GC 2172; read-out: MINIMAL INHIBITORY CONCENTRATION MIC, Mouse Serum",8 µg/mL
same,MIC,"S. typhimurium GC 2172; read-out: MINIMAL INHIBITORY CONCENTRATION MIC, Water",> 64 µg/mL
same,MIC,"S. aureus GC 6466; GC6466, read-out: MINIMAL INHIBITORY CONCENTRATION MIC, Human Serum",0.25 µg/mL
same,MIC,"S. aureus GC 6466; GC6466, read-out: MINIMAL INHIBITORY CONCENTRATION MIC, Mouse Serum",0.25 µg/mL
same,MIC,"S. aureus GC 6466; GC6466, read-out: MINIMAL INHIBITORY CONCENTRATION MIC, Water",1 µg/mL
same,MIC,"S. aureus GC 6467; GC6467, read-out: MINIMAL INHIBITORY CONCENTRATION MIC, Human Serum",1 µg/mL
same,MIC,"S. aureus GC 6467; GC6467, read-out: MINIMAL INHIBITORY CONCENTRATION MIC, Mouse Serum",0.5 µg/mL
same,MIC,"S. aureus GC 6467; GC6467, read-out: MINIMAL INHIBITORY CONCENTRATION MIC, Water",2 µg/mL
same,MIC,"S. aureus GC 1079; GC1079, read-out: MINIMAL INHIBITORY CONCENTRATION MIC, Human Serum",1 µg/mL
same,MIC,"S. aureus GC 1079; GC1079, read-out: MINIMAL INHIBITORY CONCENTRATION MIC, Mouse Serum",0.5 µg/mL
same,MIC,"S. aureus GC 1079; GC1079, read-out: MINIMAL INHIBITORY CONCENTRATION MIC, Water",2 µg/mL
same,MIC,"S. aureus GC 4536; GC4536, read-out: MINIMAL INHIBITORY CONCENTRATION MIC, Human Serum",0.5 µg/mL
same,MIC,"S. aureus GC 4536; GC4536, read-out: MINIMAL INHIBITORY CONCENTRATION MIC, Mouse Serum",0.5 µg/mL
same,MIC,"S. aureus GC 4536; GC4536, read-out: MINIMAL INHIBITORY CONCENTRATION MIC, Water",1 µg/mL
same,MIC,"S. aureus GC 2216; GC2216, read-out: MINIMAL INHIBITORY CONCENTRATION MIC, Human Serum",0.5 µg/mL
same,MIC,"S. aureus GC 2216; GC2216, read-out: MINIMAL INHIBITORY CONCENTRATION MIC, Mouse Serum",0.5 µg/mL
same,MIC,"S. aureus GC 2216; GC2216, read-out: MINIMAL INHIBITORY CONCENTRATION MIC, Water",1 µg/mL
same,MIC,"S. aureus GC 6469; GC6469, read-out: MINIMAL INHIBITORY CONCENTRATION MIC, Human Serum",1 µg/mL
same,MIC,"S. aureus GC 6469; GC6469, read-out: MINIMAL INHIBITORY CONCENTRATION MIC, Mouse Serum",1 µg/mL
same,MIC,"S. aureus GC 6469; GC6469, read-out: MINIMAL INHIBITORY CONCENTRATION MIC, Water",2 µg/mL
same,MIC,"E. faecalis GC 2242; GC2242, read-out: MINIMAL INHIBITORY CONCENTRATION MIC, Human Serum",4 µg/mL
same,MIC,"E. faecalis GC 2242; GC2242, read-out: MINIMAL INHIBITORY CONCENTRATION MIC, Mouse Serum",2 µg/mL
same,MIC,"E. faecalis GC 2242; GC2242, read-out: MINIMAL INHIBITORY CONCENTRATION MIC, Water",8 µg/mL
same,MIC,"E. faecium GC 4556; GC4556, read-out: MINIMAL INHIBITORY CONCENTRATION MIC, Human Serum",8 µg/mL
same,MIC,"E. faecium GC 4556; GC4556, read-out: MINIMAL INHIBITORY CONCENTRATION MIC, Mouse Serum",2 µg/mL
same,MIC,"E. faecium GC 4556; GC4556, read-out: MINIMAL INHIBITORY CONCENTRATION MIC, Water",8 µg/mL
same,MIC,"E. faecium GC 2243; GC2243, read-out: MINIMAL INHIBITORY CONCENTRATION MIC, Human Serum",4 µg/mL
same,MIC,"E. faecium GC 2243; GC2243, read-out: MINIMAL INHIBITORY CONCENTRATION MIC, Mouse Serum",1 µg/mL
same,MIC,"E. faecium GC 2243; GC2243, read-out: MINIMAL INHIBITORY CONCENTRATION MIC, Water",4 µg/mL
same,MIC,"c. albicans GC 3066; Candida albicans, GC3066, read-out: MINIMAL INHIBITORY CONCENTRATION MIC",> 64 µg/mL
same,MINIMAL INHIBITORY CONCENTRATION MIC,c. albicans GC 3066; Human Serum,>64 UG/ML
same,MINIMAL INHIBITORY CONCENTRATION MIC,c. albicans GC 3066; Mouse Serum,>64 UG/ML
same,MIC,"E. coli; 20 h, read-out: Range of MIC, E. coli (Mouse Serum)",1 to 2 µg/mL
same,MIC,"E. coli; read-out: Minimum inhibitory concentration (MIC), E. coli (Human Serum)",32 to 64 µg/mL
same,MIC,"E. coli; read-out: Minimum inhibitory concentration (MIC), E. coli (water)",> 64 µg/mL
same,MIC,"E. coli; read-out: Range of MIC, E. coli (Water)",> 64 µg/mL
same,MIC,"Staph.; MRSA, read-out: Range of MIC, Staph (Mouse Serum)",0.25 to 2 µg/mL
same,MIC,"Staph.; MRSA, read-out: Range of MIC, Staph (Water)",1 to 4 µg/mL
same,MIC,"Staph.; read-out: Minimum inhibitory concentration (MIC), Staph (Human Serum)",0.25 to 2 µg/mL
same,MIC,"Staph.; read-out: Minimum inhibitory concentration (MIC), Staph (Water)",1 to 4 µg/mL
